For 14 compounds, IC50 results are on record in patent US20250197372A1 (priority 2020, published 2025).

Where two headings read alike, the source gives them in different places. Bounds are passed on as bounds.

What all share (type): biochemical
Test [1] has as its target T1, recombinant alpha-glucosidase II (murine full-length glucosidase II, alpha and beta subunits, Glu 2) (Mus musculus, UniProt Q8BHN3).
T1 construct: made in house; host or cells: HEK-293T cells transduced with BacMam viruses (75% alpha, 25% beta); protein harvested from culture supernatant
The experiment in a line: Alpha-glucosidase II assay (4-methylumbelliferyl-alpha-D-pyranoside substrate, fluorescence).

Test [2] deals with recombinant human GAA (acid alpha-glucosidase) (Homo sapiens, UniProt P10253). The experiment in a line: Acid alpha-glucosidase (GAA) assay (4-methylumbelliferyl-alpha-D-pyranoside substrate, fluorescence). How it is done:
Acid alpha-glucosidase (GAA): To analyze inhibitory effects of a test compound, commercially available recombinant human GAA was incubated with multiple dilutions of test compound for 60 minutes at 37° C. 4-methylumbelliferyl-alpha-D-pyranoside was then introduced to the mixture as the substrate. 1,4-methyllumbelliferone is generated, and after an incubation for 20 minutes at 37° C., the reaction was stopped with the stop solution (0.5M glycine 0.3M NaOH pH 10). 1,4-methyllumbelliferone is detected by fluorescence (excitation at 365 nm, emission at 440 nm). Relative fluorescence compared to untreated enzymatic activity and test compound concentration is plotted as a function of percent inhibition. The IC50 is determined using a 4-PL curve fit as the measure of relative inhibitory activity of each test compound (see Table 3).

Test [3] deals with T2, recombinant human GBA (beta-glucocerebrosidase) (Homo sapiens, UniProt P04062).
T2 sequence (P04062 40-536): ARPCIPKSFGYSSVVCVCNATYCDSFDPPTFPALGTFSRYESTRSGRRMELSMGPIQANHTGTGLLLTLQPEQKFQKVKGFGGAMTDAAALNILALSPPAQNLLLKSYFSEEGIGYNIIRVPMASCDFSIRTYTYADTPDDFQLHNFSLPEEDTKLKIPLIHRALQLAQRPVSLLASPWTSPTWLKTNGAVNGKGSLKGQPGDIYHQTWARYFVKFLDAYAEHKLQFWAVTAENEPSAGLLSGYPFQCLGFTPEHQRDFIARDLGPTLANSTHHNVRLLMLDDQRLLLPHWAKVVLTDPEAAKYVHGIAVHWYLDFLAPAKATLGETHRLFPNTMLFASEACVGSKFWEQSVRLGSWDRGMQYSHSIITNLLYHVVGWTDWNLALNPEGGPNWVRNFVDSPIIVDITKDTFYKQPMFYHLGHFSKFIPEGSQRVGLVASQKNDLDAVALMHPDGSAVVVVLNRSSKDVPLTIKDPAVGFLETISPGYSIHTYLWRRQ
The experiment in a line: Beta-glucocerebrosidase (GBA, glucosylceramidase) assay (4-methylumbelliferyl-beta-D-pyranoside substrate, fluorescence). On the procedure:
Beta-glucocerebrosidase (GBA, also referred to glucosylceramidase): To analyze inhibitory effects of a test compound, commercially available recombinant human GBA was incubated with multiple dilutions of test compound for 60 minutes at 37° C. 4-methylumbelliferyl-beta-D-pyranoside was then introduced to the mixture as substrate. Following incubation for 60 minutes at 37° C., 1,4-methyllumbelliferone was generated, and the reaction was stopped with the stop solution (0.5 M glycine; 0.3 M NaOH, pH 10). 1,4-methyllumbelliferone was detected by fluorescence (excitation at 365 nm, emission at 440 nm). Relative fluorescence compared to untreated enzymatic activity and test compound concentration is then plotted as a function of percent inhibition. The IC50 was determined using a 4-PL curve fit as the measure of relative inhibitory activity of each test compound (see Table 3).

The target in test [4] is rat maltase (partially purified alpha-glucosidase from intestinal rat powder). As to the kind of experiment: Intestinal alpha-glucosidase assay, maltose substrate (Glucose GO Kit). On the procedure:
(§1) Intestinal alpha-glucosidases (rat maltase and sucrase): Intestinal alpha-glucosidases act upon 1,4-alpha-glucoside bonds, breaking down disaccharides to glucose. To perform this assay, partially purified alpha-glucosidase from intestinal rat powder was incubated for 60 minutes at 37° C. with multiple dilutions of test compounds. Maltose or Sucrose respectively was then introduced as substrate to the mixture and incubated for 30 minutes at 37° C. The reaction was stopped by a 5-minute incubation at 90° C. and the resultant glucose production is detected using Sigma's Glucose GO Kit. Percent inhibition was then plotted as a function of concentration for each test compound. The IC50 was determined using a 4-PL curve fit and serves as the measure of relative inhibition of each test compound (see Table 3).

The target of test [5] is rat sucrase (partially purified alpha-glucosidase from intestinal rat powder) (Rattus norvegicus, UniProt P23739). As to the kind of experiment: Intestinal alpha-glucosidase assay, sucrose substrate (Glucose GO Kit). How it is done: as §1
Where [6] appears, read: Glucosidase 2, read-out: Glu2 IC50.

Chain of rat sucrase (partially purified alpha-glucosidase from intestinal rat powder) (P23739 whole entry): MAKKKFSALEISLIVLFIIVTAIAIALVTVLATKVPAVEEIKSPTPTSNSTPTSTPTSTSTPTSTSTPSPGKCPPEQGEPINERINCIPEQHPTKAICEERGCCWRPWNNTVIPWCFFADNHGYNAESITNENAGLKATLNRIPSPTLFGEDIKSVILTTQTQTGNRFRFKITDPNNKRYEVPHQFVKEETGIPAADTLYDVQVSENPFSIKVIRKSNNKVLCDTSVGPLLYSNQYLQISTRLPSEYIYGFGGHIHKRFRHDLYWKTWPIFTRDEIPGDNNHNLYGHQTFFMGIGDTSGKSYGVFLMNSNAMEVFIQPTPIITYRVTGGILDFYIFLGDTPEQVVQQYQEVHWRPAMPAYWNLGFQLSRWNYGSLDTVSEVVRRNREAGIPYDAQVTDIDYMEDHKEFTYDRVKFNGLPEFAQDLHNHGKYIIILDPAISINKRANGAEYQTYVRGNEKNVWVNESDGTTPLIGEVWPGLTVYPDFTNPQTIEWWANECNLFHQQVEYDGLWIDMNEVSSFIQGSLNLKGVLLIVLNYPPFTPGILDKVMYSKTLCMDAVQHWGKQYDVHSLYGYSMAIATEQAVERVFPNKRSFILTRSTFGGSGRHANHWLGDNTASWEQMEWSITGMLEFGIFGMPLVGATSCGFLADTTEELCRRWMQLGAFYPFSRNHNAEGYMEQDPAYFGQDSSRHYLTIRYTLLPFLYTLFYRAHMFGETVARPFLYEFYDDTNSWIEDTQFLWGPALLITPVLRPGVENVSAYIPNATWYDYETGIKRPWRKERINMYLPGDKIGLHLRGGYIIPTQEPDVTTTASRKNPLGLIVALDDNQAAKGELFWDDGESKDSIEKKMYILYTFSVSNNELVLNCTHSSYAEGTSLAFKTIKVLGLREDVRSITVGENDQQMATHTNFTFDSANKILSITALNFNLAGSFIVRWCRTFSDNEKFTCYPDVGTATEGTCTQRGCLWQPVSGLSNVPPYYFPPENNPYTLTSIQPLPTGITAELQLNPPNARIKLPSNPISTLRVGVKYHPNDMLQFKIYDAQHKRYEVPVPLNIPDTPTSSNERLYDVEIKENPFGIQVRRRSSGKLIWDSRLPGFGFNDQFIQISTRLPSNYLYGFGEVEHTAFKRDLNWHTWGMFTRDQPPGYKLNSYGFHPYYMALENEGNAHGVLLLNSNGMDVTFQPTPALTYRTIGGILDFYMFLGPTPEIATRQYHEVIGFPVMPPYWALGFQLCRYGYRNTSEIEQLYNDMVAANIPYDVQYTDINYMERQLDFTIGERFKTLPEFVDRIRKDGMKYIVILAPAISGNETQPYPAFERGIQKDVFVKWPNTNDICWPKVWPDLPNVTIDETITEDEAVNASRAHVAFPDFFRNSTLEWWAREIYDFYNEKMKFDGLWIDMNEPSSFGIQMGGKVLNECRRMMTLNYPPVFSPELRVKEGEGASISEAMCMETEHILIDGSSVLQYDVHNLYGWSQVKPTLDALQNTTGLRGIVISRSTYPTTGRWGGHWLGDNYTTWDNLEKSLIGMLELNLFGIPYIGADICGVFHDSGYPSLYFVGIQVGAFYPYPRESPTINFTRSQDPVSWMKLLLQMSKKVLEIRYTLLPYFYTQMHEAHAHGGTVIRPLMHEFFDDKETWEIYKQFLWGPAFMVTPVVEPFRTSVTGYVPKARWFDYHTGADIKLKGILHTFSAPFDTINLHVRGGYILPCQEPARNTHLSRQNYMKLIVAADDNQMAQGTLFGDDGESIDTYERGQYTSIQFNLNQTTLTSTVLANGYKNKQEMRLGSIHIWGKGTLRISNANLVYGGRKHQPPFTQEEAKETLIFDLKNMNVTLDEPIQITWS
T1 sequence (O08795 15-521): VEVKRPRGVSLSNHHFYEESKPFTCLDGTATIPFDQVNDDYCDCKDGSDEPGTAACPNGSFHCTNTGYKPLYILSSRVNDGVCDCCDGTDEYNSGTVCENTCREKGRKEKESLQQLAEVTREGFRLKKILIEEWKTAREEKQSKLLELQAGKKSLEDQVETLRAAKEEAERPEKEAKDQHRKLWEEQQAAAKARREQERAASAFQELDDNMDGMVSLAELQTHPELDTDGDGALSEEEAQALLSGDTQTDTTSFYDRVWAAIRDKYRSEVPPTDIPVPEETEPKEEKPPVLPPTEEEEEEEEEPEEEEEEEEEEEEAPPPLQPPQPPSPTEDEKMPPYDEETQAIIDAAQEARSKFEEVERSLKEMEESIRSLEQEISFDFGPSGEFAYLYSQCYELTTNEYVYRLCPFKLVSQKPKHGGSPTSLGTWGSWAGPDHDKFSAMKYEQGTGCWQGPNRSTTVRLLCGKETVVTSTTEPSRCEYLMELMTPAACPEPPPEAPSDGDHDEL
T1 sequence (Q8BHN3 33-944): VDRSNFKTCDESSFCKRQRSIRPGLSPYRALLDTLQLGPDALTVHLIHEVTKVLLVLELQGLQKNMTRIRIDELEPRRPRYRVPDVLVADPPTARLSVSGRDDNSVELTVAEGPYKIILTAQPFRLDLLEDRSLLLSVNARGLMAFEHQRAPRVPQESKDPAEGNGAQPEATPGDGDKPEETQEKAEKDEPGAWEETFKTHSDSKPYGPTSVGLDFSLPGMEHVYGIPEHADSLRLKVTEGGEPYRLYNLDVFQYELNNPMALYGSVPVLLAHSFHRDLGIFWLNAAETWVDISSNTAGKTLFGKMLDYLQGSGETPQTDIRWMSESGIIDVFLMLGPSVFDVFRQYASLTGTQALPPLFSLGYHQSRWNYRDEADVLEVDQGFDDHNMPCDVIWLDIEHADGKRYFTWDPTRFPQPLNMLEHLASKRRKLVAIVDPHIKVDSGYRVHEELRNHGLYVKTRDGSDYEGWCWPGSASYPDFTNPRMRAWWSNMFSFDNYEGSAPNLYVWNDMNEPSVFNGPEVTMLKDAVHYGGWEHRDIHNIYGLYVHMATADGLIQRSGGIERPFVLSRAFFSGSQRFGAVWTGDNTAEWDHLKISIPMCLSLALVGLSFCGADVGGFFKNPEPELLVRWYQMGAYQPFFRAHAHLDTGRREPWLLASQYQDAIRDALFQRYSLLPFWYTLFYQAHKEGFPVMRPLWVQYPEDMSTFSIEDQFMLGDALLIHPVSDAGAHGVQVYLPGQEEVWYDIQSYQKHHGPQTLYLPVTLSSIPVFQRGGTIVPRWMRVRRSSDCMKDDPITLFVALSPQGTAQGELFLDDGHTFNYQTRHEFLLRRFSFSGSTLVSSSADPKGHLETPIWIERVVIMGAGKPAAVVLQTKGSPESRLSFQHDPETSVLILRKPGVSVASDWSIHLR

One may read the IC50 as the concentration that gives 50% inhibition. Regarding `Cc1cc(NCc2ccc(CN3C[C@H](O)[C@@H](O)[C@H](O)[C@H]3CO)cc2)cc(-c2cccnn2)c1` [Compound 1052, (2R,3R,4R,5S)-2-(hydroxymethyl)-1-{[4-({[3-methyl-5-(pyridazin-3-yl)phenyl]amino}methyl)phenyl]methyl}piperidine-3,4,5-trio], the IC50 amounted to 179 nM in test [1] (setting [6]); 150 nM in test [2]; 84500 nM in test [3]; 14 nM in test [4]; 60 nM in test [5].

Consider `CS(=O)(=O)c1cc(NCc2ccc(CN3C[C@H](O)[C@@H](O)[C@H](O)[C@H]3CO)cc2)cc(-c2cccnn2)c1` [Compound 1058, (2R,3R,4R,5S)-2-(hydroxymethyl)-1-{[4-({[3-methanesulfonyl-5-(pyridazin-3-yl)phenyl]amino}methyl)phenyl]methyl}piperidine-3,4,5-triol], for which the IC50 is 114 nM in test [1] (setting [6]); 78 nM in test [2]; above 100000 nM in test [3]; 8 nM in test [4]; 46 nM in test [5].

In the case of `O=[N+]([O-])c1cc(N2CCOCC2)ccc1NCc1cccc(CN2C[C@H](O)[C@@H](O)[C@H](O)[C@H]2CO)c1` [Compound 1067, (2R,3R,4R,5S)-2-(hydroxymethyl)-1-{[3-({[4-(morpholin-4-yl)-2-nitrophenyl]amino}methyl)phenyl]methyl}piperidine-3,4,5-triol], the IC50 in test [1] (setting [6]) was 12800 nM; in test [2], 426 nM; in test [3], 3720 nM; in test [4] it was 81 nM; in test [5], 80 nM.

In the case of `OC[C@@H]1[C@@H](O)[C@H](O)[C@@H](O)CN1Cc1ccc(CNc2ccc(N3CCOCC3)cc2)cc1` [Compound 1068], the IC50 in test [1] (setting [6]) was 1580 nM; in test [2], 386 nM; in test [3], above 100000 nM; in test [4], 49 nM; in test [5], 141 nM.

On to `OC[C@@H]1[C@@H](O)[C@H](O)[C@@H](O)CN1CCc1ccc(CCNc2cc(Cl)cc(-c3ncon3)c2)cc1` [Compound 1113, (2R,3R,4R,5S)-1-{2-[4-(2-{[3-chloro-5-(1,2,4-oxadiazol-3-yl)phenyl]amino}ethyl)phenyl]ethyl}-2-(hydroxymethyl)piperidine-3,4,5-triol], for which the IC50 was found to be 296 nM in test [1]; 380 nM in test [2]; 6290 nM in test [3]; 20 nM in test [4]; 74 nM in test [5].

As to `CCCc1nc(-c2cc(Cl)cc(NCCc3ccc(CCN4C[C@H](O)[C@@H](O)[C@H](O)[C@H]4CO)cc3)c2)no1` [Compound 1123, (2R,3R,4R,5S)-1-{2-[4-(2-{[3-chloro-5-(5-propyl-1,2,4-oxadiazol-3-yl)phenyl]amino}ethyl)phenyl]ethyl}-2-(hydroxymethyl)piperidine-3,4,5-triol], the IC50 in test [1] (setting [6]) amounted to 329 nM; in test [2] it was 700 nM; in test [3], 627 nM; in test [4], 440 nM; in test [5], 2810 nM.

In the case of `COC(OC)c1cc(NCCCCCCN2C[C@H](O)[C@@H](O)[C@H](O)[C@H]2CO)cc(-c2ncccn2)c1` [Compound 1124, (2R,3R,4R,5S)-1-(6-{[3-(dimethoxymethyl)-5-(pyrimidin-2-yl)phenyl]amino}hexyl)-2-(hydroxymethyl)piperidine-3,4,5-triol], the IC50 in test [1] (setting [6]) came to 18 nM; in test [2], 36 nM; in test [3], 3000 nM; in test [4], 23 nM; in test [5] it was 147 nM.

As to `CC(=O)Nc1cc(NCCCCCCN2C[C@H](O)[C@@H](O)[C@H](O)[C@H]2CO)cc(-c2ncccn2)c1` [Compound 1125, N-[3-(pyrimidin-2-yl)-5-({6-[(2R,3R,4R,5S)-3,4,5-trihydroxy-2-(hydroxymethyl)piperidin-1-yl]hexyl}amino)phenyl]acetamide], the IC50 in test [1] (setting [6]) was found to be 19 nM; in test [2] it was 80 nM; in test [3], 9690 nM; in test [4] it was 15 nM; in test [5], 92 nM.

Consider `CN(C)C(=O)c1cc(NCCCCCCN2C[C@H](O)[C@@H](O)[C@H](O)[C@H]2CO)cc(-c2ncccn2)c1` [Compound 1126, N,N-dimethyl-3-(pyrimidin-2-yl)-5-({6-[(2R,3R,4R,5S)-3,4,5-trihydroxy-2-(hydroxymethyl)piperidin-1-yl]hexyl}amino)benzamide], for which the IC50 stood at 35 nM in test [1] (setting [6]); 86 nM in test [2]; 7040 nM in test [3]; 23 nM in test [4]; 13500 nM in test [5].

On to `CS(=O)(=O)c1cc(NCCCCCCN2C[C@H](O)[C@@H](O)[C@H](O)[C@H]2CO)cc(-c2ncccn2)c1` [Compound 1128, (2R,3R,4R,5S)-2-(hydroxymethyl)-1-(6-{[3-methanesulfonyl-5-(pyrimidin-2-yl)phenyl]amino}hexyl)piperidine-3,4,5-triol], for which the IC50 was 1 nM in test [1] (setting [6]); 5 nM in test [2]; 5200 nM in test [3]; below 1 nM in test [4]; 39 nM in test [5].

On to `O=Cc1cc(NCCCCCCN2C[C@H](O)[C@@H](O)[C@H](O)[C@H]2CO)cc(-c2ncccn2)c1` [Compound 1129, 3-(pyrimidin-2-yl)-5-({6-[(2R,3R,4R,5S)-3,4,5-trihydroxy-2-(hydroxymethyl)piperidin-1-yl]hexyl}amino)benzaldehyde], for which the IC50 was 7 nM in test [1] (setting [6]); 28 nM in test [2]; 2730 nM in test [3]; 5 nM in test [4]; 56 nM in test [5].

For the compound `N#Cc1cc(NCCCCCCN2C[C@H](O)[C@@H](O)[C@H](O)[C@H]2CO)cc(-c2ncccn2)c1` [Compound 1130, 3-(pyrimidin-2-yl)-5-({6-[(2R,3R,4R,5S)-3,4,5-trihydroxy-2-(hydroxymethyl)piperidin-1-yl]hexyl}amino)benzonitrile], the IC50 in test [1] (setting [6]) amounted to 6 nM; in test [2], 12 nM; in test [3] it was 974 nM; in test [4], 4 nM; in test [5], 30 nM.

Take `OC[C@@H]1[C@@H](O)[C@H](O)[C@@H](O)CN1CCCCCCNc1cc(-c2ncccn2)cc(C(F)(F)F)c1` [Compound 1131, (2R,3R,4R,5S)-2-(hydroxymethyl)-1-(6-{[3-(pyrimidin-2-yl)-5-(trifluoromethyl)phenyl]amino}hexyl)piperidine-3,4,5-triol]: the IC50 in test [1] (setting [6]) was found to be 3 nM; in test [2] it was 25 nM; in test [3] it was 308 nM; in test [4], 8 nM; in test [5], 40 nM.

Consider `COc1cc(C#N)cc(NCCc2ccc(CCN3C[C@H](O)[C@@H](O)[C@H](O)[C@H]3CO)cc2)c1` [Compound 1133, 3-methoxy-5-{[2-(4-{2-[(2R,3R,4R,5S)-3,4,5-trihydroxy-2-(hydroxymethyl)piperidin-1-yl]ethyl}phenyl)ethyl]amino}benzonitrile], for which the IC50 amounted to 5 nM in test [1] (setting [6]); 542 nM in test [2]; 4500 nM in test [3]; 97 nM in test [4]; 237 nM in test [5].
